Laboratory results taken from patent US20010049097A1 (priority 1999, published 2001).

Columns and labels:
[1] = molecular target: T1, mutant T7 Y639F polymerase (Escherichia phage T7, UniProt P00573, Y639F); type: biochemical, T7 bacteriophage; settings: for concentration found to increase rate of Y639RNAP-catalyzed transcript extension: more than one rNTP replaced by a non-canonical nucleoside triphosphate; for concentration in excess of which generally inhibitory of activity: reaction with 4 rNTPs and plasmid templates; for effect on nucleotide incorporation: reactions containing 4 rNTPs and no non-canonical nucleotides
T1 construct: made in house; host or cells: E. coli BL21 (protease-deficient strain), plasmid pDPT7
Description: In general, transcription reaction mixtures comprised about 40 mM Tris-HCl or 40 mM Tris-Acetate pH 8.0, 5 mM DTT, 5-15 mM MgCl2, 0.1 mCi/ml of alpha-^32P GTP, and various combinations of rNTPs and dNTPs at initial concentrations of 0.5 mM and 1.0 mM, respectively. The reaction mixtures included supercoiled or PvuI-linearized pT75 DNA (10^−8 M) as the template and mutant T7 Y639F polymerase (10^−7 M). Reactions were typically conducted in 50 microliter reaction volumes and incubated at 37° C. Aliquots were removed after 5, 10, and 20 minutes of incubation and the reactions were quenched by adding a solution containing 95% formamide, 20 mM EDTA, 0.01% xylene cyanol. The reaction products were resolved by electrophoresis on denaturing gels containing 6% acrylamide, 0.6% bis-acrylamide, 6 M urea, 1×TBE. The gel was analyzed using a Molecular Dynamics Phosphorimager to determine the rates of incorporation of radioactive GTP into specific transcripts.
To evaluate the effect of A-form stabilizing compounds on polyamines on transcript extension by a mutant T7 RNAP, the activity of the RNAP was evaluated using standard transcription conditions (15 mM MgCl2, 40 mM Tris-HCl pH 8.0, 1 mM EDTA, and 5 mM DTT), or standard transcription reaction conditions plus varying concentrations of ethanol, methanol, trifuoro acteic acid, cobalt hexamine, spermine, or spermidine.
In addition to evaluating A-form stabilizing compounds, we examined the effects of varying the concentration of Mg^2+ and Mn^2+, substituting acetate for chloride as the main reaction counteranion, adding 0.1% tween-20, and adding pyrophosphatase.
With reference to FIG. 1A, reactions in lanes labeled ‘M’ were carried out with wild type polymerase, 4 rNTPs, and either Pvu I- or Hind III-restricted pT75 to generate RNA markers ˜579 or ˜59 bases in length, respectively. Values below each gel lane give the relative rates of synthesis of runoff or long (>˜600 base) transcripts on linearized or supercoiled templates, respectively, normalized to a value of 100 for the 4 rNTP reactions. FIG. 1A compares the relative activities of Y639F in typical polymerase reaction conditions (15 mM MgCl2, 40 mM Tris-HCl pH 8.0, 1 mM EDTA, and 5 mM DTT) and in a modified reaction mixture (40 mM Tris-acetate pH 8.0, 5 mM DTT, 1 mM EDTA, 10 mM Mg-acetate, 0.5 mM MnCl2, 8 mM spermidine, and 1 U/μl pyrophosphatase) in reactions having various combinations of rNTPs and dNTPs with supercoiled or linearized templates.
With reference to FIG. 1B, transcripts were synthesized using Hind III-cut pT75 as the template with 2′-NH2- or 2′-F NTPs as indicated replacing the corresponding rNTPs in the reaction. Reactions were conducted with 8 mM or 0 mM spermidine, as indicated. FIG. 1B compares the activity of Y639F in the presence or absence of spermidine, in reactions with 4 rNTPs or different combinations of rNTPs and 2′-F- or 2′-NH2-NTPs.

Y639F T7RNAP = Y639F T7RNAP (Escherichia phage T7, UniProt P00573, Y639F); settings: 42 bp template
Chain of Y639F T7RNAP (P00573 whole entry Y639F): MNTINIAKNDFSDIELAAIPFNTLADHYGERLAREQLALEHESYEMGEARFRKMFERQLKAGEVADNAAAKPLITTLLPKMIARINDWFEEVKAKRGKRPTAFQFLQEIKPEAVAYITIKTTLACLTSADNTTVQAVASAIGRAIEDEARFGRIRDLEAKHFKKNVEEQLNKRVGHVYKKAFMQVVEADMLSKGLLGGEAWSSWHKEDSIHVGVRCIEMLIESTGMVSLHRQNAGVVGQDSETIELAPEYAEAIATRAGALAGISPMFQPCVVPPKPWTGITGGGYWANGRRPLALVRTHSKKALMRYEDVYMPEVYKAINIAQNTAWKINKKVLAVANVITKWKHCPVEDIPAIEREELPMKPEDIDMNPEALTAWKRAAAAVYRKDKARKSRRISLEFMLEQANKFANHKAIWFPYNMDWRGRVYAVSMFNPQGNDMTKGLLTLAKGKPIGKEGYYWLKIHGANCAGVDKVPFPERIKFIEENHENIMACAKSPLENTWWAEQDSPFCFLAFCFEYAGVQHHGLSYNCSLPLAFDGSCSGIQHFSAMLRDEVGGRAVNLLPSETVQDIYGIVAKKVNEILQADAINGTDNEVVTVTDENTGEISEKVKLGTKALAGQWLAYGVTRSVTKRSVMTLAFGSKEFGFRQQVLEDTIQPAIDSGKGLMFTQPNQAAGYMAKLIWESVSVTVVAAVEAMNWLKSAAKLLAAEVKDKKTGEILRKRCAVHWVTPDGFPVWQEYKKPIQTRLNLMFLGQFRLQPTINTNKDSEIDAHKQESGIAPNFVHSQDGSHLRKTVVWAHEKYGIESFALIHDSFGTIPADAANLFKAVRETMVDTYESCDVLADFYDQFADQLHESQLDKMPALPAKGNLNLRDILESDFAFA
Description: A 42 base-pair synthetic template carrying a consensus T7 promoter was tested for its effect on Y639F T7RNAP activity by measuring the synthesis of 25 base runoff transcripts in reaction mixtures containing 10 mM MgCl2, 40 mM Tris pH 8.0, 1 mM EDTA, 5 mM DTT, 0.5 mM MnCl2 and either 3 dNTP+rGTP or 4 rNTP reactions (FIG. 2A). […] The polymerase and T7 promoter were included at concentrations of about 10^−7 M. Reaction products were subjected to electrophoresis on denaturing gels containing 20% acrylamide, 2% bis-acrylamide, 6 M urea, 1×TBE.

T1 sequence (P00573 whole entry Y639F): as above

## NCCCCNCCCN [spermidine]
[1]
  concentration found to increase rate of Y639RNAP-catalyzed transcript extension: at least 8 mM
  concentration in excess of which generally inhibitory of activity: > 10 mM
  effect on nucleotide incorporation: minimal effects at low concentrations and were inhibitory at high concentrations

## O=C(O)C(F)(F)F [trifluoroacetic acid]
[1]
  effect on nucleotide incorporation: inhibited

## CO[C@@H]1[C@H](O)[C@@H](COP(=O)(O)OP(=O)(O)OP(=O)(O)O)O[C@H]1n1cnc2c(=O)[nH]c(N)nc21 [2′-O-Me-GTP]
[1]; Hind-III linearized pT75, modified buffer, single rNTP replaced
  synthesis of 59 base runoff transcripts, lower than in reactions with 4 rNTPs: eliminated synthesis of runoff transcripts altogether

## CCO [ethanol]
[1]
  effect on nucleotide incorporation: inhibited

## CO [methanol]
[1]
  effect on nucleotide incorporation: inhibited

## N.N.N.N.N.N.[Cl-].[Cl-].[Cl-].[Co+3] [cobalt, cobalt hexamine]
[1]
  effect on nucleotide incorporation: inhibited

## NCCCNCCCCNCCCN [spermine]
[1]
  concentration found to increase rate of Y639RNAP-catalyzed transcript extension: at least 1.5 mM
  concentration in excess of which generally inhibitory of activity: > 1 mM
  effect on nucleotide incorporation: minimal effects at low concentrations and were inhibitory at high concentrations
[1]; plasmid pT75 template, all combinations of rNTPs and dNTPs
  concentration inhibiting transcription: ≥ 4 mM
[1]; reactions with non-canonical substrates (3 replaced), plasmid templates
  concentration optimum for stimulation of activity: 1 to 2 mM
Y639F T7RNAP; 1.6 mM spermine, 3 dNTPs
  runoff synthesis relative to 8 mM spermidine: 2 fold
Y639F T7RNAP; reactions with 3 dNTPs
  concentrations shown to be stimulatory: up to 13 mM
